Measurements published in patent publication US7795206B2, “Peptide that inhibits janus kinase” (YM Biosciences Australia Pty Ltd, priority 2001, dated 2010).

What was measured:
[1] = system: wild-type Ba/F3 cells grown upon IL-3; test: Ba/F3 proliferation assay (IL-3 dependent growth, MTT); assay type: cell-based, murine; conditions: peptide 1 μM to 100 μM in PBS; cell number after three days by MTT assay; FIG. 5
Experimental: FIG. 5. Ba/F3 cell assay: Inhibition of the growth of the IL-3 dependent growth of Ba/F3 cells has been brought about by the addition of a peptide derived from JAK2 PSL. PSLShort PAEFMRMI (SEQ ID NO:15) and PSLControl SPSKFRMPEAMIGND (SEQ ID NO:16) were added at concentrations ranging from IμM to 100 μM in phosphate buffered saline. Cell number after three days was measured by an MTT assay.
These peptides were tested for biological activity by means of a proliferation assay using the murine growth factor dependent hematopoietic cell line Ba/F3. On the basis of our hypothesis of the role of how the PSL region might work, we reasoned that if these peptides were to supplant the PSL from the KLD of JAK2, then the JAK PTK activity would thereby either become unregulated, resulting in a IL-3 independent growth phenotype, or the normal IL-3 dependent growth of these cells would be inhibited. […] We hypothesize that the activity of the PSLshort peptide was dependent upon the presence of the JAK2 KLD, and conclude that its mode of action is by displacement of the PSL of JAK2 from the JAK2 KLD, resulting in unprimed JAK2 molecules that cannot be triggered by IL-3. […]
The murine hematopoietic cell line Ba/F3 was grown in the presence of IL-3. […] Cell number after three days was measured by an MTT assay.

[2] = system: Ba/F3 cells transformed to factor independence by ectopic expression of TEL/JAK2 fusion; test: Ba/F3 proliferation assay, cells transformed to factor independence by TEL/JAK2; assay type: cell-based, murine; conditions: oncogenic JAK2 (PTK domain fused to PNT domain of TEL); FIG. 5

Sequence: PAEFMRMI (homo sapiens) [PSLshort]
- inhibition of growth of wild-type Ba/F3 cells grown upon IL-3 [1]: able to inhibit growth
- inhibition of growth of Ba/F3 cells transformed to factor independence by TEL/JAK2 [2]: unable to inhibit
